Ki data for eight compounds are collected here from patent US6608087B1, “Gyrase inhibitors and uses thereof” (Vertex Pharmaceuticals Incorporated, priority 2000, dated 2003).

Structures are written as SMILES.

This assay has as its target E. coli gyrase A2B2 (Escherichia coli, UniProt P0AES6). The assay is described as follows: ATPase assay, E. coli gyrase A2B2 (coupled pyruvate kinase/lactate dehydrogenase). The format is biochemical. The conditions noted are these: 30° C., 0.9 mM ATP, 40 nM enzyme, read-out: Activity against E. coli gyrase (Ki). How it is done:
The ATP hydrolysis activity of DNA gyrase was measured by coupling the production of ADP through pyruvate kinase/lactate dehydrogenase to the oxidation of NADH. This method has been described previously. (Tamura and Gellert, 1990, J. Biol. Chem.265, 21342-21349).
ATPase assays were carried out at 30° C. in buffered solutions containing 100 mM TRIS pH 7.6, 1.5 mM MgCl2, and 150 mM KCl. The coupling system contained (final concentrations) 2.5 mM phosphoenol pyruvate, 200 μM nicotinamide adenine dinucleotide (NADH), 1 mM DTT, 30 ug/ml pyruvate kinase, and 10 ug/ml lactate dehydrogenase. 40 nM enzyme (374 kDa Gyr A2B2 from E coli) and a DMSO solution of the inhibitor to a final concentration of 4% were added and the reaction mixture allowed to incubate for 10 minutes at 30° C. The reaction was then started by the addition of ATP to a final concentration of 0.9 mM and the rate of NADH disappearance at 340 nm, measured over the course of 10 minutes. Ki values were determined from rate versus. inhibitor concentration profiles.
A word on the Ki: it is the dissociation constant of the complex between target and ligand, obtained from inhibition or displacement. Turning to `COC(=O)NCc1cc(-c2sc(-c3ccccc3)nc2N2CCN(Cc3ccccc3)CC2)n[nH]1` [IA-18], the Ki was 500 to 1500 nM.

Turning to `COC(=O)NCc1cc(-c2sc(-c3ccccc3)nc2N2CCCCC2C)n[nH]1` (centres unmarked) [IA-30], the inhibitory constant (Ki) is < 500 nM. As for `COC(=O)NCc1cc(-c2sc(-c3ccccc3)nc2N2CCNCC2)n[nH]1` [IA-37], the figure is > 1500 nM. `CC(C)OC(=O)NCc1cc(-c2sc(-c3ccccc3)nc2-c2ccccc2)n[nH]1` [IA-46]: the Ki is > 1500 nM. As for `CCOC(=O)c1cc(-c2sc(-c3ccccc3)nc2CN2CCOCC2)n[nH]1` [IA-66], the figure is > 1500 nM. `CCOC(=O)c1cc(-c2sc(-c3ccccc3)nc2CN2CCNCC2)n[nH]1` [IA-67]: the Ki lay within 500 to 1500 nM.

Turning to `CCOC(=O)c1cc(-c2sc(-c3ccccc3)nc2CN(CC)CC)n[nH]1` [IA-69], the Ki is > 1500 nM. As for `CCOC(=O)c1cc(-c2cnn(-c3cccc(Cl)c3)c2C)n[nH]1` [ID-28, 1′-(3-Chloro-phenyl)-5′-methyl-1H,1′H-[3,4′]bipyrazolyl-5-carboxylic Acid Ethyl Ester], the figure is > 1500 nM.
